The source made the active and inactive calls. The rule behind the calls is not given here. Where a SMILES comes first, the peptide text is derived from it. [ ]: non-standard residue; d: D form. The star is where a group is joined. Dolaproine = CO[C@@H]([C@@H]1CCCN1)[C@@H](C)C(=O)O; Dil = CC[C@H](C)[C@H](NC)[C@@H](CC(=O)O)OC; X2 = C[C@@H](N*)[C@@H](O)c1ccccc1; NMeV = CN[C@H](C(=O)O)C(C)C
How the values were obtained:
[1] = Acute toxicity in iv dosed ICR male mouse assessed as maximum non-lethal dose; assay type: organism-based; conditions: in vivo
[2] = Acute toxicity in iv dosed Wistar male rat assessed as maximum non-lethal dose; assay type: organism-based; conditions: in vivo
[3] = tested on: PC-3; assay: Induction of intracellular reactive oxygen species production in human PC-3 cells incubated for 1 hr measured at CC50 concentration by amperometric method; assay type: functional, cell-based
[4] = tested on: CWR22R; assay: Induction of intracellular reactive oxygen species production in human 22Rv1 cells incubated for 1 hr measured at CC50 concentration by amperometric method; assay type: functional, cell-based
[5] = Acute toxicity in Wistar rat assessed as decrease in motor activity; conditions: in vivo
[6] = Acute toxicity in Wistar rat assessed as decrease in porphyrin release from nose mucous membrane at 30 mg/kg, iv; assay type: organism-based; conditions: in vivo
[7] = tested on: PC-3; assay: Cytotoxicity against human PC-3 cells not expressing PMSA measured using MTT assay; assay type: functional
[8] = tested on: CWR22R; assay: Cytotoxicity against human 22Rv1 cells expressing PMSA measured using MTT assay; assay type: functional
[9] = Acute toxicity in Wistar rat assessed as decrease in porphyrin release from eye mucous membrane at 30 mg/kg, iv; assay type: organism-based; conditions: in vivo
[10] = Acute toxicity in Wistar rat assessed as damage in liver at 30 mg/kg, iv; assay type: organism-based; conditions: in vivo

SMILES	Activity [1]	Activity [2]	Activity [3]	Activity [4]	Activity [5]	Activity [6]	CC50 [7]	CC50 [8]	Activity [9]	Activity [10]
CC[C@H](C)[C@@H]([C@@H](CC(=O)N1CCC[C@H]1[C@H](OC)[C@@H](C)C(=O)N[C@H](C)[C@@H](O)c1ccccc1)OC)N(C)C(=O)[C@@H](NC(=O)[C@@H](NC)C(C)C)C(C)C (H-[NMeV]V[Dil][Dolaproine]-X2)	0.1 mg/kg	0.29 mg/kg	Active	Active	Toxic	Toxic	0.97 nM	1.44 nM	Toxic	Toxic
CC(=O)O[C@@]12CO[C@@H]1C[C@H](O)[C@@]1(C)C(=O)[C@H](O)C3=C(C)[C@@H](OC(=O)[C@H](O)[C@@H](NC(=O)OC(C)(C)C)c4ccccc4)C[C@@](O)([C@@H](OC(=O)c4ccccc4)[C@H]21)C3(C)C [DOCETAXEL ANHYDROUS]							6.7 nM	3.3 nM		

— ChEMBL document CHEMBL5034037, “Synthesis, Characterization, and Preclinical Evaluation of a Small-Molecule Prostate-Specific Membrane Antigen-Targeted Monomethyl Auristatin E Conjugate” (J Med Chem, 2021)
